{"source": "paper PMC12498136", "about": "“Synthesis and biological evaluation of novel carnosic acid derivatives with anticancer activity” (RSC Advances, 2025)", "format_in_all_cases": "cell-based", "key": {"SW480 cells [1]": {"system": "SW480 cells", "test": "MTT cell viability assay in SW480 cells", "procedure": "(§1) The MTT assay was used to assess the effect of the compounds on cell viability. For this purpose, A375 (1500 cells per well), BJ (10 000 cells per well), Caco-2 (4000 cells per well), HCT116 (3000 cells per well), Mia Paca-2 (2000 cells per well), SW480 (6000 cells per well), and SW620 (8000 cells per well) cells were seeded in 96-well plates and incubated for 24 h. Subsequently, the culture medium was switched with a new medium containing DMSO (control) or the compound at a specified concentration. Following a 72 h incubation period, the supernatant was aspirated, and 100 μL of a mixture (1 : 1) of filtered MTT solution (1 mg per mL PBS) and FBS-free medium was added. The plates were then incubated for 1 h at 37 °C. After this time, the supernatant was aspirated, and the formazan crystals were dissolved in 100 μL of DMSO in each well. Relative cell viability was calculated by measuring absorbance at 570 nm using a Benchmark Plus Microplate Reader (Bio-Rad Laboratories, Hercules, CA, USA). Results are presented as the mean ± standard deviation (SD) of IC50 values, determined by nonlinear regression analysis of dose–response curves (log(inhibitor) vs. response with variable slope (four parameters)) using GraphPad Prism 9 software (GraphPad Software, San Diego, CA, USA)."}, "Mia Paca-2 cells": {"system": "Mia Paca-2 cells", "test": "MTT cell viability assay in Mia Paca-2 cells", "conditions": "Homo sapiens, MIA PaCa-2, 72 h, read-out: IC50 Mia Paca-2", "procedure": "as §1"}, "A375 cells": {"system": "A375 cells", "test": "MTT cell viability assay in A375 cells", "conditions": "Homo sapiens, A-375, 72 h, read-out: IC50 A375", "procedure": "as §1"}, "SW480 cells [2]": {"system": "SW480 cells", "test": "Apoptosis assay (annexin V-FITC/PI, flow cytometry)", "conditions": "SW480, 6.3 μM, 24, 48 or 72 h", "procedure": "Our objective was to assess whether the anticancer activity observed in SW480 cells treated with compound 17 results from the activation of apoptosis.\nSW480 cells were seeded at a density of 1.68 × 10^5 cells per well in 6-well plates and incubated at 37 °C. […] Adherent cells were harvested by trypsinization, and they were washed with DPBS and collected by centrifugation along with the cells in suspension. Cells were resuspended in 3 μL annexin V FITC and 95 μL binding buffer containing 140 mM NaCl, 2.5 mM CaCl2, and 10 mM HEPES/NaOH (pH 7.4). The cell suspension was then incubated in the dark, at room temperature for 30 min. The cells were then stained with 510 μL of a mixture containing 500 μL of binding buffer and 10 μL of PI solution (1 mg mL^−1). Finally, data from 1 × 10^4 cells were collected through fluorescence activated cell sorting (FACS) analysis using a Gallios flow cytometer (Beckman Coulter, Brea, CA, USA) at 488 nm."}, "SW480 cells [3]": {"system": "SW480 cells", "test": "Cell cycle assay (PI, flow cytometry)", "procedure": "To validate this hypothesis, compound 17 was administered at 6.3 μM to SW480 cells and incubated for 24, 48, and 72 h. Following each incubation period, the cells were fixed and permeabilized with 70% cold ethanol and stained with PI before flow cytometry analysis. At 24 h, compound 17 caused cell cycle arrest at the G0/G1 phase, as evidenced by a significant increase in the percentage of SW480 cells, from 54% in the control group to 66% in the treated group (Fig. 6). […] At 72 h, compound 17 had no impact on the cell cycle of SW480 cells, as observed in Fig. 6.\nSW480 cells were seeded, treated, incubated, and collected, as described for the apoptosis assay. After centrifugation, the cells were resuspended in 500 μL DPBS, added dropwise to 4.5 mL of 70% (v/v) cold ethanol, and stored at −20 °C for at least 4 h. Each cell suspension was centrifuged, washed with cold DPBS, and resuspended in 350 μL DPBS and 10 μL RNase (10 mg mL^−1). After 1 h of incubation at 37 °C with agitation, the cells were stained with 20 μL of PI solution (1 mg mL^−1). A Gallios flow cytometer (Beckman Coulter, Brea, CA, USA) at a wavelength of 488 nm was used for FACS analysis. Data from 1 × 10^4 cells were collected, and a multicycle software (Phoenix Flow Systems, San Diego, CA, USA) was used for cell cycle analysis."}, "CDK4": {"system": "CDK4", "test": "Western blot of CDK4 levels in SW480 cells", "conditions": "SW480, 6.3 μM, relative to control", "procedure": "(§2) SW480 cells were seeded in 6-well plates and treated as described in the previous subsection. After 24, 48 or 72 h of incubation, adherent cells were washed twice with ice-cold DPBS and incubated with lysis buffer (0.2% Triton X-100, 0.5 mM sodium deoxycholate, 1 mM Na-EDTA, 1 mM DTT, 20 mM Tris–HCl (pH 7.5), 0.5% phosphatases inhibitor cocktail, and 1% proteases inhibitor cocktail) for 30 min at 4 °C. The cells were scraped, sonicated, and centrifuged at 120 00 × g (20 min at 4 °C). […] The gels were then transferred to PVDF membranes, which were blocked with 5% skim milk in PBS-Tween-20 (0.1%) for 1 h at room temperature. Subsequently, the membranes were incubated with the primary antibodies for 30 mi at room temperature (actin) or overnight at 4 °C (CDK4, CDK6, cyclin A, Rb and SOD2/MnSOD). After incubation, the membranes were washed with PBS-Tween-20 (0.1%) and incubated with anti-mouse secondary antibody (40 min) or anti-rabbit secondary antibody (1 h) at room temperature. Finally, the membranes were washed with PBS-Tween-20 (0.1%) and treated with the Immobilon Western Chemiluminescent HRP Substrate Kit, and autoradiography was performed using an FPM-100A film processor (Fujifilm, Tokyo, Japan). western blot results were obtained from three independent experiments, except for cyclin A at 24 h (n = 2), Rb protein at 24 and 72 h (n = 2), and SOD2 (MnSOD) at 72 h (n = 2)."}, "SOD2/MnSOD": {"system": "SOD2/MnSOD", "test": "Western blot of SOD2/MnSOD levels in SW480 cells", "conditions": "SW480, 6.3 μM, 24 and 72 h, relative to control", "procedure": "as §2"}, "[4]": {"conditions": "SW480 cells, ratio of IC50 values"}}, "data": [{"molecule": "CC(=O)Oc1c(C(C)C)cc2c(c1OC(C)=O)[C@@]1(NC(=O)OCC(C)C)CCCC(C)(C)[C@@H]1CC2", "note": "[Compound 17, (4bR,8aS)-8,8-Dimethyl-4b-{[(2-methylpropoxy)carbonyl]amino}-2-(propan-2-yl)-4b,5,6,7,8,8a,9,10-octahydrophenanthrene-3,4-diyl diacetate]", "values": [{"measurement": "IC50", "setting": "SW480 cells [1]; Homo sapiens, SW480, 72 h, read-out: IC50 SW480", "value": "6.3 ± 0.5", "unit": "µM"}, {"measurement": "fold more active than cisplatin", "setting": "SW480 cells [1]; [4]", "value": 2.4, "unit": "fold"}, {"measurement": "fold more potent than CA 1", "setting": "SW480 cells [1]; [4]", "value": 3.5, "unit": "fold"}, {"measurement": "IC50", "setting": "Mia Paca-2 cells", "value": "7.5 ± 0.6", "unit": "µM"}, {"measurement": "IC50", "setting": "A375 cells", "value": "6.7 ± 0.5", "unit": "µM"}, {"measurement": "induction of apoptosis", "setting": "SW480 cells [2]", "value": "did not induce apoptosis"}, {"measurement": "percentage of SW480 cells in G0/G1 phase", "setting": "SW480 cells [3]; 6.3 μM, 24 h (control 54%)", "value": 66, "unit": "%"}, {"measurement": "percentage of SW480 cells in S phase", "setting": "SW480 cells [3]; 6.3 μM, 48 h (control 30%)", "value": 40, "unit": "%"}, {"measurement": "effect on the cell cycle", "setting": "SW480 cells [3]; SW480, 6.3 μM, 72 h", "value": "no impact"}, {"measurement": "CDK4 protein level", "setting": "CDK4; 24 h", "value": "significantly reduced"}, {"measurement": "CDK4 protein level", "setting": "CDK4; 48 h", "value": "lower than those in the control group"}, {"measurement": "CDK4 protein level", "setting": "CDK4; 72 h", "value": "reduction"}, {"measurement": "expression of SOD2/MnSOD", "setting": "SOD2/MnSOD", "value": "significantly increased"}]}]}
